Reference: patent US20160008339A1, “PSORALEN DERIVATIVES FOR PREVENTING OR TREATING HEART FAILURE OR CARDIAC HYPERTROPHY” (MAX-DELBRUCK-CENTRUM FUR MOLEKULARE MEDIZIN, priority 2012, published 2016)

Columns and labels:
[1] = test system: primary neonatal rat cardiomyocytes; assay: Beat frequency of neonatal cardiomyocytes by Fluo-4 calcium measurement; type: cell-based; details: Fluo-4, from 100 bpm
Protocol: The frequency of contraction could be determined in a similar manner with a calcium sensor (Fluo-4). In a laser-scanning microscope, Fluo-4 was excited with an argon laser (488 nm) and the emission signals were detected and collected at a wavelength of 505 nm. The fluorescence intensity represented the intracellular concentration of calcium ions. Usually, the line-scan mode was used for image recording, and the line-scan images were recorded with a speed of 1.54 or 1.92 ms per line along the longitudinal axis of the cell. After the sequential image recording, a two-dimensional image with 512×100 lines or 512×2000 lines was generated and saved for later analysis.
Additional calcium measurements were performed. […] The fluorescence dye Fluo-4 was added after 20 min. Fluo-4 is a calcium sensor, which is used for investigating the calcium increase in cells. In cardiomyocytes the dye serves for examining the contractility. During contraction and relaxation, the calcium concentrations differ in the cytosol of cardiomyocytes. The fluorescence intensity of Fluo-4 increases with an increasing calcium concentration, and a decreasing calcium concentration will cause reduced fluorescence intensity. A frequency could be calculated from the fluo-4 fluorescence oscillation by a time depended analysis, wherein the fluorescence was measured over a period of two hours. The ground state at the moment before application (black), the period 10 to 30 sec after application (dark grey) and 70 to 110 sec after application (light grey) were evaluated (FIG. 5). Application refers to the adding of PE or adrenaline. […] The statistical analysis was performed according to the method of analysis of variance (ANOVA).

[2] = target: T1, AKAP-Lbc (guanine nucleotide exchange on RhoA) (Homo sapiens, UniProt Q12802); assay: RhoGEF nucleotide exchange assay (GDP against mGTP on RhoA); details: IC50 (fifty percent inhibition of nucleotide exchange), 15 min
T1 sequence (Q12802 1994-2333): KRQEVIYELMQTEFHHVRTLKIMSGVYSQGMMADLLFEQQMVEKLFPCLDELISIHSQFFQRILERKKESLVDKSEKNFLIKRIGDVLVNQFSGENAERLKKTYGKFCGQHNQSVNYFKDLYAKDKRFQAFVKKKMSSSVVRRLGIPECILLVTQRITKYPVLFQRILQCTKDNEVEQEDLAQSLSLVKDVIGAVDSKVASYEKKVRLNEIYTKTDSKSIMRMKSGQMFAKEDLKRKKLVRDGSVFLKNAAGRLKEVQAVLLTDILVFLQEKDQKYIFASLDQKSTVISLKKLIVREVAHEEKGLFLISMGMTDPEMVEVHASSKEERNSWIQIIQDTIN
Protocol: Following the protocol of the RhoGEF exchange assay Biochem Kit, a nucleotide exchange experiment for AKAP-Lbc and RhoA was established. The fluorescence labelled nucleotide analogues 2′(3′)-O—(N-methylanthraniloyl)-guanosine diphosphate and 2′(3′)-O—(N-methylanthraniloyl)-guanosine triphosphate, hereinafter referred to mGDP and mGTP, were used for tracing the nucleotide exchange.
25 μl depletion buffer (100 mmol/L sodium phosphate, pH 7.4, 5 mmol/L EDTA, 200 mmol/L ammonium sulfate) with an excess of mGDP (5 mmol/L) were added to 200 μg recombinant his6-RhoA (25 μl) and incubated one hour at room temperature. Then, magnesium chloride (MgCl2) was added to a final concentration of 10 mmol/L.
By centrifugation with Vivaspin® 500 concentrator vials (MWCO 5 kDa, 10 min, 10000 rpm) and buffer (100 mmol/L sodium phosphate, pH 7.4, 100 mmol/L NaCl, protease inhibitor [cOmplete, Mini, EDTA-free protease inhibitor cocktaile]) RhoA-mGDP was washed twice and reduced to 100 μl. 1 μmol/L RhoA-mGDP and 0.5 μmol/L AKAP-Lbc DHPH in nucleotide exchange buffer (40 mmol/L Tris pH 7.5; 100 mmol/L NaCl; 20 mmol/L MgCl2, 100 μg/ml BSA) were used for the nucleotide exchange. The fluorescence measurements were performed in a micro plate reader (TECAN Safire) over a period of 15 min, whereby the fluorophore of mGDP was excited at 360 nm and the resulting fluorescence signal was determined at 440 nm.
At a concentration relation of 2 μmol/L protein and 1 μmol/L mGTP, an ideal fluorescence signal-to-noise-ratio was found in the nucleotide exchange buffer (40 mM Tris pH 7.5, 100 mmol/L NaCl, 20 mmol/L MgCl2, 100 μg/ml BSA). The fluorescence signal for mGTP was measured analogous to mGDP (λexc=360 nm; λem=440 nm) in a micro plate reader (TECAN Safire) over a period of 15 min. The experiment was performed in a 384-well plate.

3T3 mouse fibroblasts = assay: LPA-induced stress fibre formation, TRITC-phalloidin fluorescence; type: cell-based; details: 3T3 cells, LPA alone (DMSO)
Description: For the initial analysis, 3T3 cells were used to evaluate the cellular effects of the compounds of the present invention. In these cells changes in the cytoskeleton caused by GTPase activation are well observable, because the cells have a G protein coupled receptor for LPA. A stimulation of 3T3 cells with LPA leads to an activation of RhoA and thereby to the formation of fibrillar actin filaments (F-actin, stress fibres). The participation of AKAP-Lbc as an exchange factor for RhoA within the signal transduction via a G protein of the G−12/13 family was shown.
3T3 mouse fibroblasts were seeded on 30 mm cover slips (in 6 well plates) in a cell density of 2×10^5 cells/well. […]
Following that, the cells were washed with phosphate buffer (Dulbecco's Phosphate-Buffered Saline++) and fixed in 2.5% paraformaldehyde in sodium cacodylate buffer (100 mmol/L sodium cacodylate, 100 mmol/L sucrose, pH 7.4) for 15 min. […] For the microscopic investigations, images were taken with two different fluorescence channels. […]
Without LPA stimulation no stress fibres could be identified after addition of DMSO instead of the compounds of the invention (FIG. 2A, a). […] The quantification of the stress fibre formation were performed with the software package ImageJ by the determination of the overall fluorescence of the TRITC-phalloidin. […]

[3] = test system: primary neonatal rat cardiomyocytes; assay: Beat rate of neonatal cardiomyocytes counted by light microscope; type: cell-based; details: PE 100 μmol/L for six hours, from 100 bpm
Protocol: For cultivation of primary neonatal rat cardiomyocytes, hearts of two to three days old rats were obtained and quickly stored on ice in ADS buffer (116.4 mM NaCl, 5.4 mM KC, 5.6 mM dextrose, 10.9 mM NaH2PO4, 405.7 μmol/L MgSO4, 20 mM Hepes, pH 7.3). Under sterile conditions, the hearts were cleaned from blood and vessels, cut into small pieces and transferred into falcon tubes. The ADS buffer was exchanged against an enzyme solution (see table below). Within four cycles each with five ml enzyme solution and an enzyme mix comprising collagenase and pancreatin, isolated cells were released from the tissue (12 min at 37° C. in a water bath with approx. 220 rpm).
The supernatant with the isolated cells was collected, transferred in fetal calf serum (FCS, 2.5 ml on ice) and subsequently centrifugated in FCS (100 g for 3 min at 4° C.). The supernatant of the centrifugation was discarded and the pellet was resuspended in 5 ml cold plating medium. After an additional centrifugation, the pellet was resuspended in 15 ml medium, transferred into a dish and incubated for two hours at 37° C. to allow the settling of the fibroblasts. The cardiomyocytes in the supernatant were counted with a Scepter Handheld Automated Cell Counter and transferred in dishes coated with gelatine. On the following day the medium was changed.
The neonatal cardiomyocytes were seeded in 6-well plates with 1.5×10^6 cell per well. The stimulation with 100 μmol/L phenylephrine (PE) was performed for six or twenty four hours at 37° C. Untreated cells served as control. The effect of compound 31413 on the α-adrenergic stimulation of the cardiomyocytes was determined after incubation with the compound for three hours. To do this, the contraction of the cells was counted within a minute and different conditions were compared.
Isolated neonatal cardiomyocytes were used to investigate the relation between AKAP-Lbc induced RhoA activation and the contractility of the heart. After a chronic stimulation of the α1-adreno receptors (AR) with the specific agonist PE for six hours, the beats of the cardiomyocytes were counted over a period of 15 s and a beat rate per minute (bpm) was calculated. An increase of the beat rate of the cardiomyocytes from 100 bpm to 160 beats per minute could be observed. […] The beat rate of neonatal cardiomyocytes was counted with help of a light microscope.

[4] = test system: primary neonatal cardiomyocytes (α-sceletal muscle actin mRNA); assay: Hypertrophy marker α-actin 1 mRNA by quantitative real-time PCR; type: cell-based, rat; details: PE 100 μmol/L, 24 hours
Protocol: Primary neonatal cardiomyocytes were prepared as described above. The cardiomyocytes were stimulated for 24 or 48 hours with 100 μmol/L phenylephrin (PE) or 10 μmol/L isoproterenol (ISO) in absence or presence of 10 μmol/L or 50 μmol/L of compound 31413.
After 24 hours or 48 hour of stimulation, the medium was removed, and every well was washed with 2 ml phosphate buffered saline and fixed with 200 μl TRIzol. The cells were removed from each well and transferred into a 1.5 ml Eppendorf tube, respectively.
For cell breakdown, 40 μl chloroform was added to each Eppendorf tube. The broken cells were centrifuged for 15 min at 1400 g and 4° C. The supernatant containing RNA/DNA was taken, mixed with 100 μl isopropanol and centrifugated for 20 min at 1500 g and 4° C. The supernatant was discarded and the pellet was resuspended in 500 μL ethanol. The RNA from the pellet was purified by chromatography. The concentration of the RNA was determined by NANODROP.
The quantification of the hypertrophy marker α-sceletal muscle actin (α-actin 1) mRNA was performed by quantitative real-time PCR. First, the RNA was transcribed to a cDNA with a SuperScript™III First-Strand Synthesis SuperMix (Invitrogen) and random hexamer primers. The cDNA was amplified in a PCR reaction in an Applied Biosystem StepOne™ Real-Time PCR System. Glycerinealdehydephosphate dehydrogenase and NTC (no template control) was used as controls. All samples were triplicates. The following primers have been used: […]

| Compound | frequency after stimulation [1] [bpm] | IC50 [2] [µM] | also measured |
| --- | --- | --- | --- |
| CNCC(O)c1ccc(O)c(O)c1 (stereo not shown) [adrenaline, reference compound] | 200 | – | – |
| CCCCc1cc(=O)oc2cc3occ(-c4ccc(OC)cc4)c3cc12 [Compound 31892, 5-butyl-3-(4-methoxyphenyl)furo[3,2-g]chromen-7-one] | – | 78.9 | – |
| lysophosphatide acid [LPA, reference compound] | – | – | formation of stress fibres after stimulation (3T3 mouse fibroblasts): clear formation of stress fibres |
| CCCc1cc(=O)oc2cc3occ(-c4ccc(OC)cc4)c3cc12 [Compound 31864, 3-(4-methoxyphenyl)-5-propyl-furo[3,2-g]chromen-7-one] | – | 39.9 | – |
| CNC[C@H](O)c1cccc(O)c1 [PE, phenylephrine, reference compound] | 150 | – | beat rate of the cardiomyocytes after stimulation [3]: 160 beats per minute; increase in relative amount of α-actin 1 mRNA [4]: threefold increase |
